# Test results taken from patent US11680086B2, “Lipopeptide for potently inhibiting HIV, derivative thereof, pharmaceutical composition thereof and use thereof” (Institute of Pathogen Biology, Chinese Academy of Medical …, priority 2017, dated 2023).
# Peptide text beside a SMILES is read from it. * marks the point of attachment. Palmitoyl = CCCCCCCCCCCCCCCC(=O)*
# Experiments:
# [1] = test system: HIV-1 strain NL4-3 (NL4-3D36G); assay: antiviral activity in serum of macaque after subcutaneous injection; type: in vivo, macaques (rhesus monkeys); details: 3 mg/kg subcutaneous
# Description: The specific method was as follows: 6 experimental macaques (rhesus monkeys) were selected, half male and half female, aged 3-4 years old, weighing 3.4-4.7 kg. […] The serum was separated according to a conventional method. The injection interval of each inhibitor was more than 2 weeks to ensure that there was no residue of the previous analyte. The serum activity against the HIV-1 strain NL4-3 (NL4-3D36G) was measured according to the experimental method of the pseudovirus-based assay in the above examples. The serum was diluted by 3 folds. […] Therefore, the lipopeptides of the present invention were not only potent but also were long-lasting effective.
# [2] = test system: HIV-1 strain NL4-3 pseudovirus (D36G mutant); type: cell-based
# Description: The supernatant was discarded from the wells. […] Inhibition rate (%) and IC50 value were calculated.
# [3] = test system: HIV-2 strain ROD (infectious); assay: inhibition of HIV-2; type: cell-based; details: HIV-2 ROD
# [4] = test system: 35 HIV-1 pseudoviruses (subtypes A, B, B', C, G, A/C, A/E, B/C)
# [5] = test system: HXB2-mediated cell fusion (HL2/3 effector cells, TZM-b1 target cells); type: cell-based, HIV-1; details: HXB2-mediated cell fusion
# Description: HIV-1 mediated cell fusion inhibition assay: the effector cells (HL2/3 cells) and target cells (TZM-b1 cells) were provided by the AIDS Reagent Program of National Institutes of Health (NIH) (catalog numbers: 1294 and 8129, respectively). The both cells were adherent cells and were cultured in a DMEM cell culture medium containing ampicillin/streptomycin double antibiotics and 10% fetal bovine serum (FBS). The TZM-b1 was first added to a 96-well cell culture plate (1×10^4 cells/well), and cultured overnight at 37° C. and 5% CO2. The test substance was diluted with the DMEM cell culture medium by 3 folds and mixed with HL2/3 effector cells (3×10^4 cells/well), then added to the TZM-b1 target cells, and further cultured for 6 hours to fully fuse. The activity of luciferase (relative fluorescence units, RLU) was then determined using a luciferase reporter gene kit from Promega company according to the instructions. The inhibition rate of each sample at each concentration was calculated, and the half effective inhibitory concentration (IC50 value) was calculated using GraphPad Prism Software 2.01.
# HIV-1 strain JRCSF = type: cell-based
# Description: Inhibition rate (%) and IC50 value were calculated.
smiles,measurement,setting,value
CCCCCCCCCCCCCCCC(=O)NCCCC[C@H](NC(=O)[C@H](CCC(=O)O)NC(=O)[C@H](CC(C)C)NC(=O)[C@H](CCCCN)NC(=O)[C@H](CCCCN)NC(=O)[C@H](CC(C)C)NC(=O)[C@H](CCC(=O)O)NC(=O)[C@H](CCC(=O)O)NC(=O)[C@H](CCC(=O)O)NC(=O)[C@H](CC(N)=O)NC(=O)[C@H](CCCCN)NC(=O)[C@H](CCCCN)NC(=O)[C@H](CCC(N)=O)NC(=O)[C@H](CCC(N)=O)NC(=O)[C@H](CCC(=O)O)NC(=O)[C@H](CCC(=O)O)NC(=O)[C@H](C)NC(=O)[C@H](CCCCN)NC(=O)[C@H](CCCCN)NC(=O)[C@H](CC(C)C)NC(=O)[C@H](CC(C)C)NC(=O)[C@H](CCC(=O)O)NC(=O)[C@H](CCC(=O)O)NC(=O)[C@@H](NC(=O)[C@H](CCCCN)NC(=O)[C@H](CCC(N)=O)NC(=O)[C@H](CCC(=O)O)NC(=O)[C@H](Cc1c[nH]c2ccccc12)NC(C)=O)[C@@H](C)CC)C(N)=O [LP-52] (Ac-WEQKIEELLKKAEEQQKKNEEELKKLEK(Palmitoyl)-NH2),maximum serum dilution multiple for inhibiting 50% of NL4-3 infectivity,[1]; 4 hour after injection,700802 folds
same,maximum serum dilution multiple for inhibiting 50% of NL4-3 infectivity,[1]; 6 hour after injection,669112 folds
same,maximum serum dilution multiple for inhibiting 50% of NL4-3 infectivity,[1]; 72 hours (3 days) after injection,182 folds
same,inhibitory activity as folds of that of T-20,"[2]; NL4-3 pseudovirus entry, relative to T-20",2353 folds
same,"inhibitory activity further improved, folds","[2]; NL4-3 pseudovirus, relative to LP-50",about 2 folds
same,inhibitory activity against HIV-2 (in words),[3],extremely potent inhibitory activity
same,IC50,"[4]; read-out: average IC50 for inhibition of various types of HIV-1 pseudoviruses, average over 35 pseudoviruses",16 pM
same,inhibitory activity against different subtypes of HIV-1 as folds of T-20,"[4]; relative to T-20, from average IC50",2588 folds
same,"inhibitory activity further improved, folds",[5]; relative to LP-50,about 2 folds
same,inhibitory activity as folds of that of T-20,[5]; relative to T-20,1859 folds
same,inhibitory activity as folds of that of T-20,"HIV-1 strain JRCSF; JRCSF replication, relative to T-20",1038 folds
same,"inhibitory activity further improved, folds","HIV-1 strain JRCSF; replicative JRCSF virus, relative to LP-50",~5 folds
